# Results reported in ChEMBL document CHEMBL1201862, “PubChem BioAssay data set” (2004).
# Activity calls are given as the source filed them.
# Columns and labels:
# Assay type in all cases: functional
# [1] = nonselective inhibitors of cellular cAMP signaling, dose response, counter-screen for MC4R biased antagonist project, cell-based, TR-FRET cAMP detection (AID 602305);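 also: U2OS cells stimulated with forskolin near its EC80 as the cAMP inducer; potency is for inhibition of forskolin-stimulated cAMP signaling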
# Melanocortin receptor 4 = Melanocortin receptor 4 (Homo sapiens, UniProt P32245); experiment: MC4R antagonist potency on cAMP, dose response, cell-based, TR-FRET, biased antagonists (AID 602298);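 also: antagonist potency against agonist-stimulated cAMP production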
# [2] = target: T1, Sentrin-specific protease 7 (Homo sapiens, UniProt Q9BQF6); experiment: SENP7 protease inhibitors, SAR follow-up, biochemical, luminescence, set 2 (AID 588600)
# T1 sequence (Q9BQF6 whole entry): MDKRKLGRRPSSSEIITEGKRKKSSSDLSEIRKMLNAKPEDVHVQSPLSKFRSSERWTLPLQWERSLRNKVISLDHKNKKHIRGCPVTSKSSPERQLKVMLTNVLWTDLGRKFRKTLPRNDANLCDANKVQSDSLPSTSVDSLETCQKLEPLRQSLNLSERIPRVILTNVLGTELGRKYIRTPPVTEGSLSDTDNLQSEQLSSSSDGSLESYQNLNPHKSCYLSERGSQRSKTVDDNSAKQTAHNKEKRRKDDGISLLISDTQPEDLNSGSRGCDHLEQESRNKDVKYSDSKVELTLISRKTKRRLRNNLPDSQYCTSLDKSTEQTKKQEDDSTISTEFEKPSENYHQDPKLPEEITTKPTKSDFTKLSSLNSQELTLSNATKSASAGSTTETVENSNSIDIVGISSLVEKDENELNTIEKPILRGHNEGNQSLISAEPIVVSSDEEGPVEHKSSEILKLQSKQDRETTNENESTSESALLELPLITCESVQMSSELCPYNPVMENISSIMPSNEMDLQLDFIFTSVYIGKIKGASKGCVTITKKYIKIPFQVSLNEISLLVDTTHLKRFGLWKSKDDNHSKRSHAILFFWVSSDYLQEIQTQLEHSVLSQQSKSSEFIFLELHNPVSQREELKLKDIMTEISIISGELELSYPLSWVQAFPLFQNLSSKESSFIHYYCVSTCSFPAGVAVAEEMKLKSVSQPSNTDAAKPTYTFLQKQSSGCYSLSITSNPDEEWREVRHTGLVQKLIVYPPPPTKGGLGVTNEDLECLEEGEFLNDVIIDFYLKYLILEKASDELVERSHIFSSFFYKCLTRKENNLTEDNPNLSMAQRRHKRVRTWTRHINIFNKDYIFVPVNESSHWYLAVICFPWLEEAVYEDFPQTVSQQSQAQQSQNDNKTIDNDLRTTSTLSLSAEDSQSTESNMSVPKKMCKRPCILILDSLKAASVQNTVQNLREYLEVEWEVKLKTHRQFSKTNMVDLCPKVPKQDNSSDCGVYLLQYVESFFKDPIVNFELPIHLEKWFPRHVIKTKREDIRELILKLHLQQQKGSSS
# [3] = target: T2, Sentrin-specific protease 6 (Homo sapiens, UniProt Q9GZR1); experiment: SENP6 protease inhibitors, SAR follow-up, biochemical, luminescence, set 2 (AID 588598)
# T2 sequence (Q9GZR1 whole entry): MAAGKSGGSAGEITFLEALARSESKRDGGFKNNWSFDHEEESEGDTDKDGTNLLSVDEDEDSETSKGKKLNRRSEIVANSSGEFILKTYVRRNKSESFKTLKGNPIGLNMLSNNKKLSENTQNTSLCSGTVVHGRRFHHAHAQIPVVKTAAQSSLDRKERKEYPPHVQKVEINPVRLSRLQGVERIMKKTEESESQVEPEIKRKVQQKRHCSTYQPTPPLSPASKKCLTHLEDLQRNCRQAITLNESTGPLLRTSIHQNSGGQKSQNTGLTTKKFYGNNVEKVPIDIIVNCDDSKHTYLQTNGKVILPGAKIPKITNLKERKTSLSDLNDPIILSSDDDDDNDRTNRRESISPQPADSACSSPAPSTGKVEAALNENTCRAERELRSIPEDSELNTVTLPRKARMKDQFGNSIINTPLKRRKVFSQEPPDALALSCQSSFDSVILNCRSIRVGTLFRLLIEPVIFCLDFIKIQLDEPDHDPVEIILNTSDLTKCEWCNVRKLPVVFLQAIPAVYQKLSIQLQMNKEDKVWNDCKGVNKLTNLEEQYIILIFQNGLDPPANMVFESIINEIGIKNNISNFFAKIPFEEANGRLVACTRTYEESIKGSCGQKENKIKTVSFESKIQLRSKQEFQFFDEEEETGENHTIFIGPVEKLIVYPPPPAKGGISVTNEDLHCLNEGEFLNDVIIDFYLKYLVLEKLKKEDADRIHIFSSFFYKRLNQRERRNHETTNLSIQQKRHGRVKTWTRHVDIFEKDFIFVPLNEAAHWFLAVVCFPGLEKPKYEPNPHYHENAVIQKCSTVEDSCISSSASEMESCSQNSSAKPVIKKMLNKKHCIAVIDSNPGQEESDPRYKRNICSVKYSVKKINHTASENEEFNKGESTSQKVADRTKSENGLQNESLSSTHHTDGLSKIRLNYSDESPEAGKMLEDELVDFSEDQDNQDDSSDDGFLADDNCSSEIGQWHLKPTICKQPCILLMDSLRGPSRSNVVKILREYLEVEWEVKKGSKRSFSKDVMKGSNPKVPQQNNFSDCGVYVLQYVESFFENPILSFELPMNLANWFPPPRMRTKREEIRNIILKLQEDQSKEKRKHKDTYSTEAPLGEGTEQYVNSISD
# Caspase-3 [4] = target: T3, Caspase-3 (Homo sapiens, UniProt P42574); experiment: SAR Analysis of small molecule inhibitors of Sentrin-specific proteases (SENPs) using a Caspase-3 Selectivity assay. [Related pubchem assays (depositor defined):AID2540, AID2599, AID434973, AID489001]
# T3 sequence (P42574 whole entry): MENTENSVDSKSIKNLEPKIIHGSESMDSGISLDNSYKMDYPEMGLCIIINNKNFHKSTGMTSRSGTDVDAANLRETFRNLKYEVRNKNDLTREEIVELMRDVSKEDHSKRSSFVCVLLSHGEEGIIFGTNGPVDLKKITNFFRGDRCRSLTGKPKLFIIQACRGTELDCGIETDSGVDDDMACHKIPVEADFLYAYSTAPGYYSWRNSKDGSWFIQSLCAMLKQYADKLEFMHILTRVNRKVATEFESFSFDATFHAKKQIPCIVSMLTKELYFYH
# [5] = target: T4, Sentrin-specific protease 8 (Homo sapiens, UniProt Q96LD8); experiment: SENP8 protease inhibitors, SAR follow-up, biochemical, luminescence (AID 504501)
# T4 sequence (Q96LD8 whole entry): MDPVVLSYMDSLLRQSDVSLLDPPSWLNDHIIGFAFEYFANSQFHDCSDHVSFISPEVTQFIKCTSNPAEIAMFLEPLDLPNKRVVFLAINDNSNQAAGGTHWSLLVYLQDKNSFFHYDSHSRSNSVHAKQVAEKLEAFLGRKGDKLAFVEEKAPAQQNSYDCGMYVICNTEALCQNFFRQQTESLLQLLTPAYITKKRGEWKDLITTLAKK
# Caspase-3 [6] = target: T3, Caspase-3; experiment: caspase-3 inhibitors as off-family protease, SAR follow-up, selectivity assay for SENP protease inhibitor project, biochemical, luminescence, set 2 (AID 588599)
# [7] = target: T1, Sentrin-specific protease 7; experiment: SENP7 protease inhibitors, SAR follow-up, biochemical, luminescence (AID 504497)
# [8] = target: T2, Sentrin-specific protease 6; experiment: SAR Analysis of small molecule inhibitors of Sentrin-specific protease 6 (SENP6) using a Luminescent assay. [Related pubchem assays (depositor defined):AID2582, AID2599]
# [9] = target: T4, Sentrin-specific protease 8; experiment: SENP8 protease inhibitors, SAR follow-up, biochemical, luminescence, set 2 (AID 588601)
# Orexin receptor type 2 [10] = target: T5, Orexin receptor type 2 (Homo sapiens, UniProt O43614); experiment: Counterscreen assay for antagonists of the orexin 1 receptor (OX1R; HCRTR1): Fluorescence-based cell-based dose response assay for antagonists of the orexin 2 receptor (OX2R; HCRTR2), run by assay provider.
# T5 sequence (O43614 whole entry): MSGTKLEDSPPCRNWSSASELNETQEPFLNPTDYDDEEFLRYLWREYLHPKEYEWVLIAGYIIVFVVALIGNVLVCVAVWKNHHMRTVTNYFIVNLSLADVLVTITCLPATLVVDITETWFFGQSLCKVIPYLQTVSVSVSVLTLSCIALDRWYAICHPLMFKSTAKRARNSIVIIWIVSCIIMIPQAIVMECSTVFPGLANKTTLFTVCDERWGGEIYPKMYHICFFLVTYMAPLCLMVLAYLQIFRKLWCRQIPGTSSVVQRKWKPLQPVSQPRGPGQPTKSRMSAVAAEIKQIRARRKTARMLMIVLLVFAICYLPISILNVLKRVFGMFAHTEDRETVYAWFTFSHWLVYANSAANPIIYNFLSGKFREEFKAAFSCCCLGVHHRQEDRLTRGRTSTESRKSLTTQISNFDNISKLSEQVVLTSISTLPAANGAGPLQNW
# [11] = Luminescence Cell-Based Dose Response HTS to Identify Activators of Luciferase Translation or Activity in H4 […] Cells. [Related pubchem assays: 1829 (Project Summary), 1814 (Primary HTS)]
# [12] = target: T6, Orexin/Hypocretin receptor type 1 (Homo sapiens, UniProt O43613); experiment: Homogeneous Time Resolved Fluorescence (HTRF)-based cell-based high throughput dose response assay for antagonists of the orexin 1 receptor (OX1R; HCRTR1). [Related pubchem assays (depositor defined):AID434989, AID435008, AID463079, AID485270, AID492963, AID492964, AID492965, AID493232, AID504717, AID504718]
# T6 sequence (O43613 whole entry): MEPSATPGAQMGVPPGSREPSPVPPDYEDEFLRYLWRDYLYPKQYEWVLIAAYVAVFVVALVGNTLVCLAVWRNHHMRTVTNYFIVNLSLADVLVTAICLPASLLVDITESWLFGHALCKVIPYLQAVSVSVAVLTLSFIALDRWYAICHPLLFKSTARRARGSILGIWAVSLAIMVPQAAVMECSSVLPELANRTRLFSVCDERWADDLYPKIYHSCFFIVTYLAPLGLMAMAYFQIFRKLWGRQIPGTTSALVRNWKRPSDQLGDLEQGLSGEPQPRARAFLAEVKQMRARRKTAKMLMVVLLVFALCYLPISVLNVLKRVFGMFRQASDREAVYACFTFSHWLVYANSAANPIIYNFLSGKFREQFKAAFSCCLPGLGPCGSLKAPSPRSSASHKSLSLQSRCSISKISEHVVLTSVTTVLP
# [13] = (§1) Counterscreen for antagonists of the orexin 1 receptor (OX1R; HCRTR1): Fluorescence-based cell-based high throughput dose response assay to identify antagonists of the parental CHO cell line. [Related pubchem assays (depositor defined):AID434989, AID435008, AID463079, AID485270, AID492963, AID492964, AID492965, AID493232, AID504699, AID504701]
# [14] = target: T6, Orexin/Hypocretin receptor type 1; experiment: Fluorescence-based cell-based high throughput dose response assay for antagonists of the orexin 1 receptor (OX1R; HCRTR1). [Related pubchem assays (depositor defined):AID434989, AID435008, AID463079, AID485270, AID492963, AID492964, AID492965, AID493232, AID504717, AID504718]
# Orexin receptor type 2 [15] = target: T5, Orexin receptor type 2; experiment: Counterscreen assay for antagonists of the orexin 1 receptor (OX1R; HCRTR1): Homogeneous Time Resolved Fluorescence (HTRF)-based cell-based dose response assay for antagonists of the orexin 2 receptor (OX2R; HCRTR2), run by assay provider.
# H4 = experiment: Luminescence Cell-Based Dose Response HTS to Identify Activators of 5'UTR Stem-Loop Driven Prion Protein mRNA Translation in H4 Neuroglioblastoma Cells. [Related pubchem assays: 1829 (Project Summary), 1814 (Primary HTS)]; conditions: Homo sapiens
# CHO-K1 = experiment: as §1, with “Homogeneous time resolved fluorescence (HTRF)-based” for “Fluorescence-based”, “cell-based” for “cell-based high throughput”, “CHO-K1” for “CHO”; conditions: Cricetulus griseus;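 also: potency for inhibition of ATP-stimulated IP1 production as antagonists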
# [16] = Luminescence Cell-Based Dose Confirmation HTS to Identify Activators of 5'UTR Stem-Loop Driven Alpha-Synuclein mRNA Translation in H4 Neuroglioblastoma Cells. [Related pubchem assays: 1829 (Project Summary), 1814 (Primary HTS)]
# [17] = target: Serine/threonine-protein kinase pim-1 (Homo sapiens, UniProt P11309)
# Chain of Serine/threonine-protein kinase pim-1 (P11309 whole entry): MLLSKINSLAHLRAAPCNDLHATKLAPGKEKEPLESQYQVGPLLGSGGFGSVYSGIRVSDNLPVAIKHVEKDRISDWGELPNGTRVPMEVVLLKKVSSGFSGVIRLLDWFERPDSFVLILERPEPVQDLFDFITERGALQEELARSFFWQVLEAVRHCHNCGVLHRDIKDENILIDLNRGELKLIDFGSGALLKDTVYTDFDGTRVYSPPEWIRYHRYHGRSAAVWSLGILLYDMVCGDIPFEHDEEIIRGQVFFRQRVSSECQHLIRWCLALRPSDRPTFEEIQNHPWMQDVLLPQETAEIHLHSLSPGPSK
# Chain of Melanocortin receptor 4 (P32245 whole entry): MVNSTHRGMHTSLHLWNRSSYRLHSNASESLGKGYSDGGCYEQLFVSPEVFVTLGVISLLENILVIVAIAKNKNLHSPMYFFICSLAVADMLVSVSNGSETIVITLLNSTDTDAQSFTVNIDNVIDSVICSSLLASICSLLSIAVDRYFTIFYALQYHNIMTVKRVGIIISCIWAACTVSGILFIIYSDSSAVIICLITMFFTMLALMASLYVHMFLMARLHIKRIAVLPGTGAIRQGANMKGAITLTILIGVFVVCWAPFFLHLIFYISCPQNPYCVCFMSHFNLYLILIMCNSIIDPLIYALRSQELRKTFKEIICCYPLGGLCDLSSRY
structure (smiles),measurement,setting,value
Cc1cc(C(=O)COc2cc(F)ccc2[N+](=O)[O-])c(C)n1CC1CCCO1 (stereo not given),IC50,[1],> 64.6 µM (inactive)
same,IC50,Melanocortin receptor 4,> 64.6 µM (inactive)
Cc1csc(C(=O)Nc2nc3ccccc3s2)c1,IC50,[2],19.2 µM (active)
same,IC50,[3],23.4 µM (active)
same,IC50,Caspase-3 [4],3.6 µM (active)
same,IC50,[5],3.2 µM (active)
same,IC50,Caspase-3 [6],34 µM (active)
same,IC50,[7],1.8 µM (active)
same,IC50,[8],2.8 µM (active)
same,IC50,[9],21.4 µM (active)
CSc1nc2ccc3nc(NC(=O)c4ccccc4)sc3c2s1,IC50,Orexin receptor type 2 [10],> 88.8 µM (inactive)
same,EC50,[11],38.3 µM (active)
same,IC50,[12],1.13 µM (active)
same,IC50,[13],> 49.7 µM (inactive)
same,IC50,[14],2.05 µM (active)
same,IC50,Orexin receptor type 2 [15],> 50 µM (inactive)
same,EC50,H4,> 120 µM (not active)
same,IC50,CHO-K1,> 66.2 µM (inactive)
same,EC50,[16],43.8 µM (active)
Cc1cc(=O)n2[nH]cc(C(=O)NCc3ccccc3)c2n1,Ki,[17],3.98 µM (active)
